According to ChEMBL document CHEMBL1201862, “PubChem BioAssay data set” (2004):
Counter-ions that a name gives are not always drawn. Active and inactive are the calls of the source.

What was measured:
[1] = target: FAD-linked sulfhydryl oxidase ALR (Homo sapiens, UniProt P55789); assay: inhibitors of human ALR sulfhydryl oxidase, dose response, biochemical, H2O2 detection, luminescence, cherry-pick (AID 493248)
[2] = target: T1, Calpain-2 catalytic subunit (Sus scrofa, UniProt P43367); assay: pig calpain II inhibitor potency, dose response, biochemical, fluorogenic peptide substrate (AID 1420); format: functional
T1 sequence (P43367 whole entry): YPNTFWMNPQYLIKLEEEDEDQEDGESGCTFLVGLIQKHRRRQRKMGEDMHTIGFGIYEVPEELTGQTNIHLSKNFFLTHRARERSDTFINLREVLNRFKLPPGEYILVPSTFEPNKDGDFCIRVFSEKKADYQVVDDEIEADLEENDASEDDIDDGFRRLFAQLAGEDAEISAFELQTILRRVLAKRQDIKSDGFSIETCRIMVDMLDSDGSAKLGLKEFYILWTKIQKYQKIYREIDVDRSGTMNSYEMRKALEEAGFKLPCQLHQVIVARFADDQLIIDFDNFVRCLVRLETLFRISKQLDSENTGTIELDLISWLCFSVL

[3] = target: T2, Heat shock factor protein 1 (Mus musculus, UniProt P38532); assay: HSF1 potentiators in luciferase reporter cells, confirmation, cell-based, NIH3T3, luminescence, dose retest (AID 435004); format: functional;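 further: stress induced by proteasome inhibitor MG132 added 30 min after compound; luciferase reporter driven by HSF1 response element in NIH3T3 cells; actives raise luminescence as potentiators of the MG132 stress response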
T2 sequence (P38532 whole entry): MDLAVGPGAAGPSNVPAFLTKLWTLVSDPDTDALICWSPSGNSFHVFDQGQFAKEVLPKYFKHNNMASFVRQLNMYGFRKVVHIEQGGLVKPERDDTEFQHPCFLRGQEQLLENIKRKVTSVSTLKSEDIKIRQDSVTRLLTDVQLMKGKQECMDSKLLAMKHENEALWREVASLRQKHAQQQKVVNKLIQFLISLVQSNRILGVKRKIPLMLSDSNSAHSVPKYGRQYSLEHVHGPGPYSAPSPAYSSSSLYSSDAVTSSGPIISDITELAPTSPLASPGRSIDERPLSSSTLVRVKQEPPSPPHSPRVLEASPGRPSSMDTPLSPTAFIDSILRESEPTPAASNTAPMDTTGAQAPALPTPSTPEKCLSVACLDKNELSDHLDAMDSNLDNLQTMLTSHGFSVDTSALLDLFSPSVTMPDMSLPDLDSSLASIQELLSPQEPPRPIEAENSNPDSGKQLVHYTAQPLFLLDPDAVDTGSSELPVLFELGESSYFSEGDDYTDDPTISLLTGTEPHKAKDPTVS

Cytochrome P450 2C19 = Cytochrome P450 2C19 (Homo sapiens, UniProt P33261); assay: Cytochrome panel assay with activity outcomes. Panel member name: p450-cyp2c19 Compounds with AC50 equal or less than 10 uM are considered active; format: functional
Cytochrome P450 2D6 = Cytochrome P450 2D6 (Homo sapiens, UniProt P10635);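 further: CYP2D6 member of a cytochrome P450 panel assay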
Cytochrome P450 3A4 = Cytochrome P450 3A4 (Homo sapiens, UniProt P08684);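 further: CYP3A4 tested as one member of a cytochrome P450 panel screen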
[4] = Luminescence Cell-Based Dose Retest to Confirm Inhibitors of Cancer Stem Cells. [Related pubchem assays (depositor defined):AID2717, AID2721]; format: functional; settings: Homo sapiens
Cytochrome P450 1A2 = target: T3, Cytochrome P450 1A2 (Homo sapiens, UniProt P05177);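 further: PubChem cytochrome P450 panel assay, CYP1A2 panel member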
T3 sequence (P05177 whole entry): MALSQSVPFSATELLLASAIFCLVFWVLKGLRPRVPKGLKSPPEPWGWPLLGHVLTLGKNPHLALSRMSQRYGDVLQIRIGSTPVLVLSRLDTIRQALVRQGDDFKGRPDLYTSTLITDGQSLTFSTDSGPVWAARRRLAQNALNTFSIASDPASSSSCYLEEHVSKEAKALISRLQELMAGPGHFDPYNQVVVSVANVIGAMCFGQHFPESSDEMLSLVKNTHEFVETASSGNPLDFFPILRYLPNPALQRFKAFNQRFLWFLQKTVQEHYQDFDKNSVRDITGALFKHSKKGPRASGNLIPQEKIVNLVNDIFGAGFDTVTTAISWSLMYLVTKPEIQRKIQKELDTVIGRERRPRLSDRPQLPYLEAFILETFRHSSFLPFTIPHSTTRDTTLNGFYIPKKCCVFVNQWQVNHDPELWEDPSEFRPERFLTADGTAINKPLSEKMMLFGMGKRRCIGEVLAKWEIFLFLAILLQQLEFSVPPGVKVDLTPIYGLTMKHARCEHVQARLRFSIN

H4 = assay: Luminescence Cell-Based Dose Response HTS to Identify Activators of 5'UTR Stem-Loop Driven Prion Protein mRNA Translation in H4 Neuroglioblastoma Cells. [Related pubchem assays: 1829 (Project Summary), 1814 (Primary HTS)]; format: functional; settings: Homo sapiens
[5] = target: Luciferin 4-monooxygenase (Photinus pyralis, UniProt P08659); assay: firefly luciferase enzyme inhibitors, dose response, biochemical, luminescence (AID 1891)
[6] = Luminescence Cell-Based Dose Confirmation HTS to Identify Inhibitors of Platelet Dense Granule Release. [Related pubchem assays: 1663 (Primary HTS), 1678 (Summary of Project)]; format: functional
[7] = P. falciparum Dd2 growth inhibitors, dose response, SYBR Green, cherry-picked samples (AID 1159567); format: functional, cell-based

Cytochrome P450 2C19, sequence (P33261 whole entry): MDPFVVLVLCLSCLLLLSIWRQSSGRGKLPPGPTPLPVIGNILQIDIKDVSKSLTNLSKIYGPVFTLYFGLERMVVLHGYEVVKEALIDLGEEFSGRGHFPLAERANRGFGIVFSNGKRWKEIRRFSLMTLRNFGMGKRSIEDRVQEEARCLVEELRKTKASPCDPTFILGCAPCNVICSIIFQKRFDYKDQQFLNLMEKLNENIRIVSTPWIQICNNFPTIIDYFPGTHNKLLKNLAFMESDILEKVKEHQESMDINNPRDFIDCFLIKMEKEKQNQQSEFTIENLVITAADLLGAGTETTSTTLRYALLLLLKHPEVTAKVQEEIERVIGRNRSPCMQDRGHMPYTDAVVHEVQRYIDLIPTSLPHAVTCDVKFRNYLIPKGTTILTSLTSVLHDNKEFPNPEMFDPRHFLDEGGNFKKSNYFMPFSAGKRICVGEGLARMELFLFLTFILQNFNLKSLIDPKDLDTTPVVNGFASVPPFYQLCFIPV
FAD-linked sulfhydryl oxidase ALR, sequence (P55789 whole entry): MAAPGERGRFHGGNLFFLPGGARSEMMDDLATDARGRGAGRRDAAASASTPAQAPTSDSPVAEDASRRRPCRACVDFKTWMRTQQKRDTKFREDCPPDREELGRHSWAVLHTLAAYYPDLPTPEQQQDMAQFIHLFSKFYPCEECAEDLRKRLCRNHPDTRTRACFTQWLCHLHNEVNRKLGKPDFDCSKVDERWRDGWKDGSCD
Cytochrome P450 2D6, sequence (P10635 whole entry): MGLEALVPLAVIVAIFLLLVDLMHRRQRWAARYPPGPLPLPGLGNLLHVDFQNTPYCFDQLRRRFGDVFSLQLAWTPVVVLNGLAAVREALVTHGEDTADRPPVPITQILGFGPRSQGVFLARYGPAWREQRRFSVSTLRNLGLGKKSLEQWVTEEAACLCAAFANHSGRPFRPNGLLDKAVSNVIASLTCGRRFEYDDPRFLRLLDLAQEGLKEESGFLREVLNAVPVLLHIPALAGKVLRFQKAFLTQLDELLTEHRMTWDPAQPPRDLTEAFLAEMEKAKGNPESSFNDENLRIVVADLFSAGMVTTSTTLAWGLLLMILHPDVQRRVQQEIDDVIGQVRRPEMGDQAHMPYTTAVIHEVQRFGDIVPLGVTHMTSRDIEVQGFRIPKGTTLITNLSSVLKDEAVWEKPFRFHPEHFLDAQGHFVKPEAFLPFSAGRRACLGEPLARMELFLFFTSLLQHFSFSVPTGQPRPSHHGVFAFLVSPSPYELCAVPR
Cytochrome P450 3A4, sequence (P08684 whole entry): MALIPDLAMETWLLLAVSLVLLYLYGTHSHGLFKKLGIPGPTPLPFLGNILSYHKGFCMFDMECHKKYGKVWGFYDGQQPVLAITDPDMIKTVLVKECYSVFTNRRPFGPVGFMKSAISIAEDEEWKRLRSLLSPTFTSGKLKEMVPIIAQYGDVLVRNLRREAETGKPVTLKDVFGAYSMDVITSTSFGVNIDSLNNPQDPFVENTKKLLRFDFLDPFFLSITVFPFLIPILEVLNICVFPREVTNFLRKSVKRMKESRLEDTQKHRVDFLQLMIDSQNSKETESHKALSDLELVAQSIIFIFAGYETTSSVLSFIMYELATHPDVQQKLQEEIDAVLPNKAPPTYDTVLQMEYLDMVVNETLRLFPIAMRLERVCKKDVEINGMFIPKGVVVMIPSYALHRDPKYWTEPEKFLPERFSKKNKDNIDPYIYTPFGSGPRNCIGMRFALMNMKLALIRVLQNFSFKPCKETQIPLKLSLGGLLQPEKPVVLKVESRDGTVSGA
Luciferin 4-monooxygenase, sequence (P08659 whole entry): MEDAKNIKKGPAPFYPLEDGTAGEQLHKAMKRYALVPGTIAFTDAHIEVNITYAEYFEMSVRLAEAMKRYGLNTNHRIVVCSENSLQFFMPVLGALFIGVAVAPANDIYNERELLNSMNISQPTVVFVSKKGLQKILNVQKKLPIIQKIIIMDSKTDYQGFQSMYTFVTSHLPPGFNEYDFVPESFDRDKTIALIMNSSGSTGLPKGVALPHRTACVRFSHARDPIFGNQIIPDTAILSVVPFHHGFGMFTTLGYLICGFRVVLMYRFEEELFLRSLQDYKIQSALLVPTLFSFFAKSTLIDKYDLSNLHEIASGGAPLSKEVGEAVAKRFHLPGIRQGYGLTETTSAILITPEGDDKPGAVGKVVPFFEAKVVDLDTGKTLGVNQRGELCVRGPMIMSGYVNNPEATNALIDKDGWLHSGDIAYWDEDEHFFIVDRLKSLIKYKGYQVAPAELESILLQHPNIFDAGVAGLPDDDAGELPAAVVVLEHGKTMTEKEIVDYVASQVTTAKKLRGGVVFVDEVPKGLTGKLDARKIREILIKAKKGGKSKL

COc1ccc(Nc2c(-c3ccc(C)cc3)nc3cnccn23)cc1
AC50 [1]: 0.763 µM (active) | IC50 [2]: > 50 µM (not active)

COc1cccc(Nc2ccccc2C(=O)O)c1
AC50 [1]: 3.35 µM (active)

CC(C(=O)Nc1ccccc1Br)N1c2cccc3cccc(c23)S1(=O)=O (centres undefined)
EC50 [3]: > 260 µM (inactive)

CCc1noc(N)c1C(=O)Nc1ccc(F)c(Cl)c1
AC50 (Cytochrome P450 2C19; read-out: AC50): 15.8 µM (inconclusive) | AC50 (Cytochrome P450 2D6): 22.4 µM (inconclusive) | AC50 (Cytochrome P450 3A4): 15.8 µM (inconclusive)

N#Cc1ccc(CN2CC3(CCN(C(=O)c4cc(C(F)(F)F)cc(C(F)(F)F)c4)CC3)C2)cc1
AC50 (Cytochrome P450 2C19; read-out: AC50): 39.8 µM (inconclusive) | AC50 (Cytochrome P450 2D6): 31.6 µM (inconclusive)

NC(=O)NC(=O)C(Nc1ccc(N2CCCCC2)cc1)c1ccccc1 (centres undefined)
AC50 [1]: 0.797 µM (active)

COc1ccc2nc(NC(=O)CSc3nnc(C)s3)sc2c1
AC50 (Cytochrome P450 2C19; read-out: AC50): 3.55 µM (inconclusive) | AC50 (Cytochrome P450 3A4): 3.98 µM (inconclusive)

COc1ccc(-c2c[nH]nc2-c2ccc(OCc3ccc([N+](=O)[O-])cc3)cc2O)cc1OC
EC50 [3]: > 260 µM (inactive)

N=C(N)SCc1nc2ccccc2c(=O)n1-c1ccccc1Cl
AC50 (Cytochrome P450 2C19; read-out: AC50): 10 µM (inconclusive) | AC50 [4]: 6.37 µM (active) | AC50 (Cytochrome P450 2D6): 0.316 µM (inconclusive)

O=C(CCC(=O)N1CCN(c2ccc(O)cc2)CC1)c1ccc(Br)cc1
AC50 [4]: 6.98 µM (active) | EC50 [3]: > 260 µM (inactive)

O=C(OC1CCOC1=O)c1cc(Cl)ccc1[N+](=O)[O-] (centres undefined)
EC50 [3]: > 260 µM (inactive)

CC(=O)Nc1ccc(NC(=O)c2ccccc2CC[N+](=O)[O-])cc1
AC50 (Cytochrome P450 2C19; read-out: AC50): 0.355 µM (inconclusive) | AC50 (Cytochrome P450 2D6): 14.1 µM (inconclusive)

CCOC(=O)c1ccccc1NC(=O)/C(C)=C/C(=O)O
AC50 (Cytochrome P450 2C19; read-out: AC50): 39.8 µM (inconclusive) | AC50 (Cytochrome P450 1A2): 20 µM (inconclusive)

O=C(O)c1cccc2c3c([nH]c12)CCCC3
AC50 [1]: 5.66 µM (active)

Cc1cc2c(ncn2C)c(NS(=O)(=O)c2cc(Cl)ccc2Cl)c1C
EC50 [3]: > 260 µM (inactive)

N#Cc1c(NC(=O)c2ccccc2)sc2c1CCC2
EC50 (H4): 12.6 µM (active)

CC(=O)c1nn(-c2cccc(Br)c2)cc1C(=O)c1ccc(Cl)cc1
EC50 [3]: > 260 µM (inactive)

C=CCn1c(S)nnc1C1CCCCC1
EC50 [3]: > 260 µM (inactive)

COCCn1c(=O)c(-c2cn(C)c3ccccc23)nc2cnc(Oc3ccc(OC)cc3)nc21
AC50 (Cytochrome P450 2C19; read-out: AC50): 15.8 µM (inconclusive) | AC50 (Cytochrome P450 1A2): 2.51 µM (inconclusive)

O=C(c1c[nH]c2ccccc12)N1CCN(c2ccccc2)CC1
AC50 [1]: 4.16 µM (active)

CC(C)CN1CCCC2(CCN(S(=O)(=O)c3ccccc3)CC2)C1
AC50 (Cytochrome P450 2C19; read-out: AC50): 31.6 µM (inconclusive)

COc1ccc(NC(=O)COc2ccc(CNCCCN3CCOCC3)cc2OC)cc1.Cl
AC50 (Cytochrome P450 2C19): inconclusive

COc1ccc(NC(=O)NC2CC3CCCC(C2)N3Cc2ccccc2)cc1 (centres undefined)
AC50 (Cytochrome P450 2C19; read-out: AC50): 14.1 µM (inconclusive) | AC50 (Cytochrome P450 2D6): 11.2 µM (inconclusive)

COc1ccc(C(=O)Nc2ccccc2C(=O)N/N=C/c2cccc3ccccc23)cc1
EC50 [5]: 1.35 µM (active) | EC50 [6]: 1.15 µM (active) | EC50 (H4): > 120 µM (not active)

Cc1cccc(COc2ccc(/C=N/NC(=O)c3nnn(-c4nonc4N)c3COc3ccc(F)cc3)cc2)c1
EC50 (H4): 61.7 µM (active)

O=C(O)CCC(=O)NCCn1c(-c2ccccc2)cs/c1=N\c1ccccc1
AC50 [1]: 22.3 µM (active) | EC50 [3]: > 260 µM (inactive)

O=C(c1ccc(F)cc1)N1CC(=O)N2[C@H](CO)[C@H](c3ccc(C#Cc4ccc(F)cc4)cc3)[C@H]2C1
AC50 [7]: 4.05 µM (active)

N#C[C@@H]1[C@H](c2ccc(C#CC3CCCCC3)cc2)[C@H](CO)N1C(=O)Nc1ccc(F)cc1
AC50 [7]: 5.43 µM (active)

CC(C)NC(=O)N1[C@H](C#N)[C@H](c2ccc(-c3ccc(F)cc3)cc2)[C@@H]1CO
AC50 [7]: 4.17 µM (active)

C[C@H](CO)N1C[C@H](C)[C@H](CN(C)S(=O)(=O)c2ccccc2)Oc2ccc(NC(=O)Cc3cn(C)c4ccccc34)cc2C1=O
AC50 [7]: 3.2 µM (active)

CCCN(C)C[C@@H]1Oc2cc(C#CC3CCCC3)ccc2S(=O)(=O)N([C@@H](C)CO)C[C@@H]1C
AC50 [7]: 4.85 µM (active)

CCS(=O)(=O)N1CC2(CN(Cc3ccccc3F)[C@@H](CO)c3[nH]c4cc(OC)ccc4c32)C1
AC50 [7]: 9.94 µM (active)

COc1cccc(NC(=O)N(C)C[C@H]2Oc3ncc(/C=C/c4ccccc4)cc3C(=O)N([C@@H](C)CO)C[C@@H]2C)c1
AC50 [7]: 6.14 µM (active)

CN1CCN([C@@H](c2ccccc2)c2ccc(Cl)cc2)CC1 [CHLORCYCLIZINE HYDROCHLORIDE]
AC50 (Cytochrome P450 2C19; read-out: AC50): 3.98 µM (inconclusive)
